Assay results as given in EP3057949B1, “SECONDARY ALCOHOL QUINOLINYL MODULATORS OF ROR GAMMA T” (Janssen Pharmaceutica NV, priority 2013, dated 2015).

Assays:
[1] = target: T1, human RORγt LBD (Homo sapiens, UniProt P51449); experiment: RORγt (LBD) Reporter Assay (GAL4 luciferase, HEK293T cells); format: cell-based; details: for IC50: compounds for 24 hours
T1 construct: expressed in transfected cells; host or cells: HEK293T
T1 sequence (P51449 258-518): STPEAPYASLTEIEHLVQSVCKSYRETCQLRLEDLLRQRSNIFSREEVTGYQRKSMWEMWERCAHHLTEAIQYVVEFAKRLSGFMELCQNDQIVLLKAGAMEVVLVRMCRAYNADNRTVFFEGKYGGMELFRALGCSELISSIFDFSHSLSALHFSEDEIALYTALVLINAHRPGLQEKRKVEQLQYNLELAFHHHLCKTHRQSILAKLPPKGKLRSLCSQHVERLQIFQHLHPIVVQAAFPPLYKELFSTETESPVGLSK
Procedure, shortened: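 HEK293T cells transiently co-transfected with GAL4 DBD–human RORγt LBD (pBIND, with renilla luciferase control) and GAL4-responsive firefly luciferase reporter, plated in phenol-red free DMEM with 5% lipid-reduced FCS. Compound exposure 24 h; firefly/renilla luminescence ratio plotted against compound concentration.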

[2] = target: T2, human RORγt ligand binding domain (RORγt LBD) (Homo sapiens, UniProt P51449); experiment: ThermoFluor® Assay (RORγt thermal shift binding); details: 0.065 mg/mL RORγt, 60 µM 1,8-ANS, pH 7.0; estimated from concentration response curves
T2 construct: His-tag (N); TurboTEV protease cleavage site (ENLYFQG) (N); made in house; host or cells: E. coli (pHIS1, modified pET vector)
T2 sequence (P51449 258-518): T1 sequence (P51449 258-518)
Procedure, shortened: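 Thermal shift of 0.065 mg/mL RORγt with 60 µM 1,8-ANS in 100 mM Hepes pH 7.0, 10 mM NaCl, 2.5 mM GSH, 0.002% Tween-20, heated at 1 °C/min; fluorescence at 500 nm. KD estimated from concentration-response of ΔTm.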

[3] = system: IL-17 production by CD4 T cells; experiment: Human Th17 Assay (IL-17 production by CD4 T cells); format: cell-based; details: IL-17 in supernatant after 3 days, Th17 differentiation conditions
Excerpt: The human Thl7 assay tests the effect of RORyt modulatory compounds on IL-17 production by CD4 T cells under conditions which favor Th17 differentiation.
Total CD4^+ T cells were isolated from the peripheral blood mononuclear cells (PBMC) of healthy donors using a CD4^+ T cell isolation kit II, following the manufacturer's instructions (Miltenyi Biotec). Cells were resuspended in a medium of RPMI-1640 supplemented with 10% fetal bovine serum, penicillin, streptomycin, […], and β-mercaptoethanol and were added to 96-well plates at 1.5x10^5 per 100 µL per well. 50 µL of compound at titrated concentrations in DMSO were added into each well at final DMSO concentration at 0.2%. Cells were incubated for 1 hour, then 50 µL of Th17 cell differentiation medium was added to each well. The final concentrations of antibodies and cytokines (R&D Systems) in differentiation medium were: 3x10^6/mL anti-CD3/CD28 beads (prepared using human T cell activation/expansion kit, Miltenyi Biotec), 10 µg/mL anti-IL4, 10 µg/mL anti-IFNγ, 10 ng/mL IL1β, 10 ng/mL IL23, 50 ng/mL IL6, 3 ng/mL TGFβ and 20 U/mL IL2. Cells were cultured at 37 °C and 5% CO2 for 3 days. Supernatants were collected and the accumulated IL-17 in culture was measured by using MULTI-SPOT® Cytokine Plate following manufacture's instruction (Meso Scale Discovery). The plate was read using Sector Imager 6000, and IL-17 concentration was extrapolated from the standard curve. The IC50s were determined by GraphPad.

Compound	inhibition at 6 µM ([1]; HEK-293T, 6 µM compound)	IC50 [1]	Kd [2]	IC50 ([3]; Homo sapiens, CD4+ T, 72 h)	RORγt (LBD) Reporter Assay, % inhibition @ 6 µM ([1]; 6 µM compound, 6 µM)	IC50 [3]
COc1nc2ccc(C(O)c3cnc(C)n3C)cc2c(Cl)c1Cc1ccc(C(F)(F)F)cc1 (single isomer, unassigned) [Example 15b, (4-Chloro-2-methoxy-3-(4-(trifluoromethyl)benzyl)quinolin-6-yl)(1,2-dimethyl-1H-imidazol-5-yl)methanol]	100%	~1000 nM	69 nM	120 nM		
COc1nc2ccc(C(O)c3cnc(C)n3C)cc2c(Cl)c1Cc1ccc(C(F)(F)F)cc1 (single isomer, unassigned) [Example 15c, (4-Chloro-2-methoxy-3-(4-(trifluoromethyl)benzyl)quinolin-6-yl)(1,2-dimethyl-1H-imidazol-5-yl)methanol]		80 nM	40 nM		101%	130 nM
